Measured values published in ChEMBL document CHEMBL1201862, “PubChem BioAssay data set” (2004).
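Step 1: Grow cells in 96-well plates. Step 2: Expose to compound for 48 hours at 5 concentrations. Step 3: Interpolate endpoints linearly; if unreached, use highest concentration. Here, GI50 denotes the concentration required for 50% inhibition of growth.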 The source made the active and inactive calls. Rule as the data show it: active = GI50 up to about 1.1 µM and inactive = higher.

Key:
Assay in all cases: inhibition of tumour cell growth, NCI panel, 48 h
[1] = test system: A549
[2] = test system: TK-10
[3] = test system: SK-OV-3
[4] = test system: IGROV-1
[5] = test system: Malme-3M
[6] = test system: SR
[7] = test system: RXF 393
[8] = test system: SNB-19
[9] = test system: NCI-H460
[10] = test system: OVCAR-4
[11] = test system: NCI/ADR-RES
[12] = test system: U-251
[13] = test system: MDA-MB-231
[14] = test system: OVCAR-5
[15] = test system: MDA-N
[16] = test system: ACHN
[17] = test system: MOLT-4
[18] = test system: HCT-116
[19] = test system: LOX IMVI
[20] = test system: T47D

Structure (SMILES) | GI50 [1] | GI50 [2] | GI50 [3] | GI50 [4] | GI50 [5] | GI50 [6] | GI50 [7] | GI50 [8] | GI50 [9] | GI50 [10] | GI50 [11] | GI50 [12] | GI50 [13] | GI50 [14] | GI50 [15] | GI50 [16] | GI50 [17] | GI50 [18] | GI50 [19] | GI50 [20]
C[n+]1c(-c2ccc(/C=N/Nc3ccnc(N/N=C/c4ccc(-c5cn6ccsc6[n+]5C)cc4)n3)cc2)cn2ccsc21 | 28.6 µM (inactive) | 25.8 µM (inactive) | > 100 µM (inactive) | 19.1 µM (inactive) | 29.9 µM (inactive) | 11.3 µM (inactive) | 21.5 µM (inactive) | 32.8 µM (inactive) | 16.9 µM (inactive) | 51.9 µM (inactive) | 39.7 µM (inactive) | 30.9 µM (inactive) | 32.7 µM (inactive) | 19.1 µM (inactive) | 3.94 µM (inactive) | 23.9 µM (inactive) | 17.8 µM (inactive) | – | – | –
CC1(C)COC(c2cccnc2/C=N/O)=N1 | > 100 µM (inactive) | > 100 µM (inactive) | > 100 µM (inactive) | > 100 µM (inactive) | > 100 µM (inactive) | > 100 µM (inactive) | > 100 µM (inactive) | > 100 µM (inactive) | > 100 µM (inactive) | > 100 µM (inactive) | – | > 100 µM (inactive) | – | > 100 µM (inactive) | – | > 100 µM (inactive) | > 100 µM (inactive) | > 100 µM (inactive) | > 100 µM (inactive) | –
CC(C)(C)C1CCC2c3c([nH]c4ccccc34)C3C(=O)N(c4cc(Cl)ccc4Cl)C(=O)C3C2C1 (centres undefined) | > 100 µM (inactive) | > 100 µM (inactive) | > 100 µM (inactive) | > 100 µM (inactive) | > 100 µM (inactive) | > 10 µM (inactive) | > 100 µM (inactive) | > 100 µM (inactive) | > 100 µM (inactive) | – | > 100 µM (inactive) | > 10 µM (inactive) | 25.9 µM (inactive) | > 100 µM (inactive) | > 100 µM (inactive) | > 100 µM (inactive) | > 100 µM (inactive) | > 100 µM (inactive) | 38.8 µM (inactive) | –
C=C/C(C)=C\CC1[C@](C)(O)CC[C@H]2C(C)(C)C(=O)CC[C@]12C (some centres undefined) | 62.7 µM (inactive) | > 100 µM (inactive) | – | > 100 µM (inactive) | > 100 µM (inactive) | 24.6 µM (inactive) | 32.3 µM (inactive) | > 100 µM (inactive) | 50.6 µM (inactive) | 54.3 µM (inactive) | 60 µM (inactive) | > 100 µM (inactive) | > 100 µM (inactive) | > 100 µM (inactive) | 96.4 µM (inactive) | > 100 µM (inactive) | 19.1 µM (inactive) | 47.5 µM (inactive) | 93.8 µM (inactive) | –
Cc1ccc2c(=O)cc(-c3cccc(F)c3)[nH]c2n1 | 0.0476 µM (active) | 1.94 µM (inactive) | 0.0403 µM (active) | 0.0755 µM (active) | 0.0379 µM (active) | 0.0224 µM (active) | 0.0415 µM (active) | 0.153 µM (active) | 0.0356 µM (active) | 1.61 µM (inactive) | 0.0196 µM (active) | 0.0389 µM (active) | 0.0845 µM (active) | 0.0564 µM (active) | < 0.012 µM (active) | 0.0514 µM (active) | 0.0542 µM (active) | 0.0406 µM (active) | 0.0518 µM (active) | –
COc1cc2c(cc1OCCCOS(C)(=O)=O)N=C[C@@H]1CCCN1C2=O | > 100 µM (inactive) | > 100 µM (inactive) | > 100 µM (inactive) | > 100 µM (inactive) | > 100 µM (inactive) | – | > 100 µM (inactive) | > 100 µM (inactive) | > 100 µM (inactive) | – | > 100 µM (inactive) | > 100 µM (inactive) | > 100 µM (inactive) | – | – | > 100 µM (inactive) | > 100 µM (inactive) | > 100 µM (inactive) | > 100 µM (inactive) | > 100 µM (inactive)
COc1ccc(/N=N/c2c(O)ccc3ccccc23)cc1 | 17.9 µM (inactive) | 17.1 µM (inactive) | 8.2 µM (inactive) | 5.47 µM (inactive) | 14.1 µM (inactive) | 14.8 µM (inactive) | 41.2 µM (inactive) | – | – | 15.4 µM (inactive) | 22.4 µM (inactive) | 15.8 µM (inactive) | 24.5 µM (inactive) | 17.5 µM (inactive) | > 100 µM (inactive) | 20.4 µM (inactive) | > 100 µM (inactive) | > 100 µM (inactive) | 49.2 µM (inactive) | –
CCOC(=O)/C(C(=S)Nc1ccccc1)=C(/N)N1CCCC1 | > 100 µM (inactive) | > 100 µM (inactive) | – | > 100 µM (inactive) | > 100 µM (inactive) | > 100 µM (inactive) | 63.1 µM (inactive) | 50.2 µM (inactive) | 62.2 µM (inactive) | > 100 µM (inactive) | > 100 µM (inactive) | 61.2 µM (inactive) | 29.7 µM (inactive) | > 100 µM (inactive) | 31 µM (inactive) | > 100 µM (inactive) | > 100 µM (inactive) | 65.5 µM (inactive) | > 100 µM (inactive) | –
